These results are taken from patent publication US10294229B2, “Heteroaryl substituted aminopyridine compounds” (BRISTOL-MYERS SQUIBB COMPANY, priority 2015, dated 2019).

Test [1] concerns Human whole blood stimulated with a TLR2 agonist (lipoteichoic acid), IL-6 levels. Nature of the test: IRAK4 Whole Blood Assay. Format: cell-based. As to conditions: lipoteichoic acid 10 μg/mL. Put shortly: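 ACD-A-anticoagulated human whole blood was preincubated with compounds for 60 min at 37 °C under 5% CO2. It was then stimulated with 10 μg/mL lipoteichoic acid (final) in RPMI for 5 h. IL-6 in plasma supernatants was measured by flow cytometry bead assay.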

Test [2] has as its target IRAK4 (Homo sapiens (Human), UniProt Q9NWZ3). Nature of the test: IRAK4 Inhibition Assay. The test is classed as biochemical. As to conditions: ATP 500 μM; IRAK4 0.6 nM. Put shortly:
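Enzyme 0.6 nM, ATP 500 μM, FL-peptide 1.5 μM, DMSO 1.6%; HEPES pH 7.2/MgCl2/Brij 35/DTT buffer. RT, 60 min, EDTA stop. Mobility-shift product/substrate ratio; % inhib vs no-enzyme and vehicle controls.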

IRAK4, sequence (Q9NWZ3 whole entry, species assumed): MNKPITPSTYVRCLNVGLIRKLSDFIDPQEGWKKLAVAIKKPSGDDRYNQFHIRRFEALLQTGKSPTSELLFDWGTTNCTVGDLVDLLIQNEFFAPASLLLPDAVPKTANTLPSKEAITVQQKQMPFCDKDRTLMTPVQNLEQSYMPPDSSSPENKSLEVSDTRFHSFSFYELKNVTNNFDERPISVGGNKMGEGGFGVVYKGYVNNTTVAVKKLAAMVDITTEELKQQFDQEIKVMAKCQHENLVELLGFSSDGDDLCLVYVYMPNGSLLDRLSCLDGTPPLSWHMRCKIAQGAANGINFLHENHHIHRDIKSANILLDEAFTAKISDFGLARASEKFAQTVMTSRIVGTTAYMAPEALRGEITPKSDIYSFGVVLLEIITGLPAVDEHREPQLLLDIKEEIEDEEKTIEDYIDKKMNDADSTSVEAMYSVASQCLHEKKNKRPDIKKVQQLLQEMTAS

The term EC50 denotes the concentration needed to bring the measured effect to its halfway point. What is called IC50 is the concentration that gives 50% inhibition. As to `CC(C)Nc1cc(-n2ncc3cc(C#N)cnc32)ncc1-c1cn(C2CCCCC2)nn1` [Example 17, 1-(5-(1-cyclohexyl-1H-1,2,3-triazol-4-yl)-4-(isopropylamino)pyridin-2-yl)-1H-pyrazolo[3,4-b]pyridine-5-carbonitrile], in test [1] (Homo sapiens), the concentration giving a half-maximal response (EC50) stood at 1970 nM. Moreover, the IC50 in test [2] amounted to 5 nM.

`CC(C)Nc1cc(-n2ncc3cc(C#N)cnc32)ncc1-c1cn(C2CCN(C)C2=O)nn1` (stereo not shown) [Example 22, 1-(4-(isopropylamino)-5-(1-(1-methyl-2-oxopyrrolidin-3-yl)-1H-1,2,3-triazol-4-yl)pyridin-2-yl)-1H-pyrazolo[3,4-b]pyridine-5-carbonitrile] had an EC50 in test [1] of 490 nM. In addition, the IC50 in test [2] is 4 nM.

With `CC(C)Cc1cn(-c2cnc(-n3ncc4cc(C#N)cnc43)cc2NC(C)C)nn1` [Example 305, 1-(5-(4-isobutyl-1H-1,2,3-triazol-1-yl)-4-(isopropylamino)pyridin-2-yl)-1H-pyrazolo[3,4-b]pyridine-5-carbonitrile], in test [1] (Homo sapiens), the EC50 worked out at 550 nM. In addition, in test [2], the IC50 was 10 nM.

Take `CC(C)Nc1cc(-n2ncc3cc(C#N)cnc32)ncc1-c1cn(C2CN(c3ncccn3)C2)nn1` [Example 147, 1-(4-(isopropylamino)-5-(1-(1-(pyrimidin-2-yl)azetidin-3-yl)-1H-1,2,3-triazol-4-yl)pyridin-2-yl)-1H-pyrazolo[3,4-b]pyridine-5-carbonitrile]: the midpoint of the response in test [1] (Homo sapiens), the EC50, lay at 1060 nM. For the same compound, the IC50 in test [2] amounted to 5 nM.

As to `CC(C)Nc1cc(-n2cnc3cc(C#N)cnc32)ncc1-c1cn([C@@H]2CCC[C@H]2O)nn1` (single isomer, unassigned) [Example 83], the EC50 in test [1] came to 860 nM. The IC50 in test [2] came out at 5 nM.

For `CC(C)Nc1cc(-n2ncc3cc(C#N)cnc32)ncc1-c1nnc(N[C@H]2CC[C@H](N)CC2)o1` [Example 434, 1-(5-(5-(((1R,4R)-4-aminocyclohexyl)amino)-1,3,4-oxadiazol-2-yl)-4-(isopropylamino)pyridin-2-yl)-1H-pyrazolo[3,4-b]pyridine-5-carbonitrile], in test [1] (Homo sapiens), a half-maximal response (EC50) required 330 nM. Moreover, the IC50 in test [2] turned out to be 4 nM.

In the case of `CC(C)(O)CCc1cn(-c2cnc(-n3ncc4cc(C#N)cnc43)cc2NC2CCOC2)nn1` [Example 366, (S)-1-(5-(4-(3-hydroxy-3-methylbutyl)-1H-1,2,3-triazol-1-yl)-4-((tetrahydrofuran-3-yl)amino)pyridin-2-yl)-1H-pyrazolo[3,4-b]pyridine-5-carbonitrile], in test [1], the EC50 was 410 nM. Moreover, the IC50 in test [2] is 9 nM.

In test [1] (Homo sapiens), `CC(=O)N1CCC(c2cn(-c3cnc(-n4ncc5cc(C#N)cnc54)cc3NC(C)C)nn2)CC1` [Example 335, 1-(5-(4-(1-acetylpiperidin-4-yl)-1H-1,2,3-triazol-1-yl)-4-(isopropylamino)pyridin-2-yl)-1H-pyrazolo[3,4-b]pyridine-5-carbonitrile] gave an EC50 of 630 nM. Moreover, the 50% inhibitory concentration (IC50) in test [2] is 6 nM.

`CC(F)Cn1cc(-c2cnc(-n3ncc4cc(C#N)cnc43)cc2NC(C)C)nn1` (single isomer, unassigned; enantiomer 2) [Example 167, 1-(5-(1-(2-fluoropropyl)-1H-1,2,3-triazol-4-yl)-4-(isopropylamino)pyridin-2-yl)-1H-pyrazolo[3,4-b]pyridine-5-carbonitrile, enantiomer 2] returned an EC50 in test [1] of 1030 nM. The IC50 in test [2] was 7 nM.

Compound `CC(C)Nc1cc(-n2ncc3cc(C#N)cnc32)ncc1-c1cn([C@H](C)[C@H](C)O)nn1` (single isomer, unassigned) [Example 89] gave a half-maximal effective concentration (EC50) in test [1] of 930 nM. The 50% inhibitory concentration (IC50) in test [2] came to 7 nM.

With `CC(C)Nc1cc(-n2ncc3cc(C#N)cnc32)ncc1-c1cn([C@@H]2CCN(S(C)(=O)=O)C[C@H]2O)nn1` (single isomer, unassigned) [Example 204], a half-maximal effect in test [1] (EC50) was put at 710 nM. The IC50 in test [2] worked out at 6 nM.

The compound `CC(C)Nc1cc(-n2ncc3cc(C#N)cnc32)ncc1-c1cn([C@@H](C)[C@H](C)O)nn1` (single isomer, unassigned) [Example 91] yielded an EC50 in test [1] of 1920 nM. The IC50 in test [2] was found to be 5 nM.

`CC(C)Nc1cc(-n2ncc3cc(C#N)cnc32)ncc1-n1cc(CCCC#N)nn1` [Example 323, 1-(5-(4-(3-cyanopropyl)-1H-1,2,3-triazol-1-yl)-4-(isopropylamino)pyridin-2-yl)-1H-pyrazolo[3,4-b]pyridine-5-carbonitrile]: it took 1310 nM to reach a half-maximal effect in test [1] (Homo sapiens) (EC50). Further, the IC50 in test [2] stood at 6 nM.

As for `CC(C)Nc1cc(-n2ncc3cc(C#N)cnc32)ncc1-c1cn(C[C@H]2CCCN2C(=O)OC(C)(C)C)nn1` [Example 99, (R)-tert-butyl 2-((4-(6-(5-cyano-1H-pyrazolo[3,4-b]pyridin-1-yl)-4-(isopropylamino)pyridin-3-yl)-1H-1,2,3-triazol-1-yl)methyl)pyrrolidine-1-carboxylate], in test [1] (Homo sapiens), the EC50 is 3370 nM. Also, the IC50 in test [2] worked out at 8 nM.

The compound `CC(C)Nc1cc(-n2ncc3cc(C#N)cnc32)ncc1-n1cc(CS(=O)(=O)c2ccccc2)nn1` [Example 332, 1-(4-(isopropylamino)-5-(4-((phenylsulfonyl)methyl)-1H-1,2,3-triazol-1-yl)pyridin-2-yl)-1H-pyrazolo[3,4-b]pyridine-5-carbonitrile] had an EC50 in test [1] (Homo sapiens) of 2050 nM. In test [2], the IC50 turned out to be 9 nM.

As for `CC(C)Nc1cc(-n2ccc3cncnc32)ncc1-c1cn(CCO)nn1` [Example 1, 2-(4-(4-(isopropylamino)-6-(7H-pyrrolo[2,3-d]pyrimidin-7-yl)pyridin-3-yl)-1H-1,2,3-triazol-1-yl)ethanol], it took 830 nM to reach a half-maximal effect in test [1] (Homo sapiens) (EC50). For the same compound, the IC50 in test [2] was determined as 7 nM.

`CC(C)Nc1cc(-n2ncc3cc(C#N)cnc32)ncc1-c1cn(C2CN(C(=O)OC(C)(C)C)C2)nn1` [Example 113, tert-butyl 3-(4-(6-(5-cyano-1H-pyrazolo [3,4-b]pyridin-1-yl)-4-(isopropylamino)pyridin-3-yl)-1H-1,2,3-triazol-1-yl)azetidine-1-carboxylate] showed an EC50 in test [1] (Homo sapiens) of 1860 nM. Also, the IC50 in test [2] worked out at 13 nM.

Take `CC(C)Nc1cc(-n2ncc3cc(C#N)cnc32)ncc1-n1cc(C[C@@H](O)c2ccccc2)nn1` [Example 315, (R)-1-(5-(4-(2-hydroxy-2-phenylethyl)-1H-1,2,3-triazol-1-yl)-4-(isopropylamino)pyridin-2-yl)-1H-pyrazolo[3,4-b]pyridine-5-carbonitrile]: in test [1] (Homo sapiens), the EC50 amounted to 1780 nM. Further, in test [2], the IC50 is 5 nM.

`CC(C)(O)CCc1cn(-c2cnc(-n3ncc4cc(C#N)cnc43)cc2NC2(C)CC2)nn1` [Example 383, 1-(5-(4-(3-hydroxy-3-methylbutyl)-1H-1,2,3-triazol-1-yl)-4-((1-methylcyclopropyl)amino)pyridin-2-yl)-1H-pyrazolo[3,4-b]pyridine-5-carbonitrile] displayed an EC50 in test [1] (Homo sapiens) of 370 nM. The half-inhibitory concentration (IC50) in test [2] came to 2 nM.

In turn, `CC(C)Nc1cc(-n2ncc3cc(C#N)cnc32)ncc1-c1cn(CC(F)F)cn1` [Example 226, 1-(5-(1-(2,2-difluoroethyl)-1H-imidazol-4-yl)-4-(isopropylamino)pyridin-2-yl)-1H-pyrazolo[3,4-b]pyridine-5-carbonitrile] gave an EC50 in test [1] (Homo sapiens) of 1480 nM. In test [2], the IC50 worked out at 16 nM.

`Cc1nnc(N2CC(n3cc(-c4cnc(-n5ncc6cc(C#N)cnc65)cc4NC(C)C)nn3)C2)o1` [Example 148, 1-(4-(isopropylamino)-5-(1-(1-(5-methyl-1,3,4-oxadiazol-2-yl)azetidin-3-yl)-1H-1,2,3-triazol-4-yl)pyridin-2-yl)-1H-pyrazolo[3,4-b]pyridine-5-carbonitrile] registered an EC50 in test [1] (Homo sapiens) of 1900 nM. Further, the IC50 in test [2] came to 5 nM.

In turn, `CC(C)Nc1cc(-n2ncc3cc(C#N)cnc32)ncc1-c1cn(CC2CCC2)cn1` [Example 233, 1-(5-(1-(cyclobutylmethyl)-1H-imidazol-4-yl)-4-(isopropylamino)pyridin-2-yl)-1H-pyrazolo[3,4-b]pyridine-5-carbonitrile] returned an EC50 in test [1] (Homo sapiens) of 530 nM. Further, the IC50 in test [2] worked out at 4 nM.

Compound `CC(C)(O)CCc1cn(-c2cnc(-n3ncc4cc(C#N)cnc43)cc2NCCC(F)(F)F)nn1` [Example 362, 1-(5-(4-(3-hydroxy-3-methylbutyl)-1H-1,2,3-triazol-1-yl)-4-((3,3,3-trifluoropropyl)amino)pyridin-2-yl)-1H-pyrazolo[3,4-b]pyridine-5-carbonitrile] registered a concentration giving a half-maximal response (EC50) in test [1] (Homo sapiens) of 440 nM. Besides, in test [2], the IC50 was found to be 7 nM.

The compound `CC(C)Nc1cc(-n2ccc3cncnc32)ncc1-c1cn(CCCCCN)nn1` [Example 5, 5-(1-(5-aminopentyl)-1H-1,2,3-triazol-4-yl)-N-isopropyl-2-(7H-pyrrolo[2,3-d]pyrimidin-7-yl)pyridin-4-amine] came in with an EC50 in test [1] (Homo sapiens) of 2130 nM. In addition, the IC50 in test [2] was 3 nM.

`CC(C)Nc1cc(-n2ncc3cc(C#N)cnc32)ncc1-c1cc(CCC(C)(C)O)no1` [Example 426, 1-(5-(3-(3-hydroxy-3-methylbutyl)isoxazol-5-yl)-4-(isopropylamino)pyridin-2-yl)-1H-pyrazolo[3,4-b]pyridine-5-carbonitrile] came in with an EC50 in test [1] (Homo sapiens) of 340 nM. For the same compound, the IC50 in test [2] stood at 1 nM.

Regarding `CC(C)Nc1cc(-n2ncc3cc(C#N)cnc32)ncc1-c1cn([C@@H]2CCNC[C@@H]2O)nn1` [Example 186, 1-(5-(1-((3S,4R)-3-hydroxypiperidin-4-yl)-1H-1,2,3-triazol-4-yl)-4-(isopropylamino)pyridin-2-yl)-1H-pyrazolo[3,4-b]pyridine-5-carbonitrile], the EC50 in test [1] (Homo sapiens) stood at 1780 nM. Besides, the 50% inhibitory concentration (IC50) in test [2] is 16 nM.
